This experiment concerns the target PRMT5-MEP50 enzyme complex (Homo sapiens (Human), UniProt O14744). Description: PRMT5 enzyme activity in vitro assay (methylation of histone H4R3, ELISA absorbance at 450 nm). It is filed as biochemical. The conditions noted are these: SAM, histone H4 peptide, room temperature 2 hours, 8 points from 10 μM to 0.128 nM. An outline of the steps: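 IC50 was derived from ELISA absorbance at 450 nm, using primary and HRP antibodies against H4R3 methylation on immobilised histone H4 peptide (residues 1-20). Compounds (10 μM to 0.128 nM, 8 points, 1:5) were incubated 2 h at room temperature with the PRMT5-MEP50 complex and SAM, diluted to 5 μg/mL and 2 μM respectively.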
For orientation: In an ELISA, binding on a coated surface is turned into a signal by an enzyme label.
PRMT5-MEP50 enzyme complex, sequence (O14744 2-637): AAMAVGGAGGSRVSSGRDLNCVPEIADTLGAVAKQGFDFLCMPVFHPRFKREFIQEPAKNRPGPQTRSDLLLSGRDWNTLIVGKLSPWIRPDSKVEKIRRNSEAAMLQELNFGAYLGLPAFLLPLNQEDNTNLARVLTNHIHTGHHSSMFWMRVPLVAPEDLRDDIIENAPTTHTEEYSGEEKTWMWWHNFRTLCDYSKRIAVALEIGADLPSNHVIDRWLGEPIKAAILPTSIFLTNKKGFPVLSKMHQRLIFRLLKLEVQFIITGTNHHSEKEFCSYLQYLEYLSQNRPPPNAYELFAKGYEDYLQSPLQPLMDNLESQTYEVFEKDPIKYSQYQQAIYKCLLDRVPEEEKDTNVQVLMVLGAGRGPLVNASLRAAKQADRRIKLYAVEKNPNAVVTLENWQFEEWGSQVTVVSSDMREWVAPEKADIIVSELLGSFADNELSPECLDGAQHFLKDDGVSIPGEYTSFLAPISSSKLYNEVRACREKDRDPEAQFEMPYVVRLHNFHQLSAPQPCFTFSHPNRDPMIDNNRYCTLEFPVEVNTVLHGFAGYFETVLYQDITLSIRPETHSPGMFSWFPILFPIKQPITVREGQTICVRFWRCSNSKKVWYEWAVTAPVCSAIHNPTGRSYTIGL
PRMT5-MEP50 enzyme complex, sequence (Q9BQA1 2-342 partner): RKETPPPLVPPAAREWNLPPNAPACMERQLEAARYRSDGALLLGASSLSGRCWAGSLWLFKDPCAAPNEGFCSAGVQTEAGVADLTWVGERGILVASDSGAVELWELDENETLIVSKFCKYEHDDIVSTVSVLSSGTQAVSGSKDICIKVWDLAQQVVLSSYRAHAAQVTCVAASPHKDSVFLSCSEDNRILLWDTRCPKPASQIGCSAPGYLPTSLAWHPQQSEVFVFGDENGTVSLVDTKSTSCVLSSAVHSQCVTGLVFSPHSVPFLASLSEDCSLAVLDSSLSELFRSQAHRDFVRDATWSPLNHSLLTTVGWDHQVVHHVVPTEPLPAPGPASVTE
One may read the IC50 as the midpoint of a concentration-inhibition curve. Read a low IC50 as higher potency. In turn, `O=C1c2ccc(Br)cc2OCCN1C[C@H](O)CN1CCc2ccccc2C1` [Example 151, 8-bromo-4-[(2R)-3-(3,4-dihydro-1H-isoquinolin-2-yl)-2-hydroxy-propyl]-2,3-dihydro-1,4-benzoxazepin-5-one] had a half-maximal inhibitory concentration (IC50) of 1 to 100 nM.

For the molecule `O=C1c2ccncc2OCCN1C[C@H](O)CN1CCc2ccccc2C1` [Example 152, 4-[(2R)-3-(3,4-dihydro-1H-isoquinolin-2-yl)-2-hydroxy-propyl]-2,3-dihydropyrido[4,3-f][1,4]oxazepin-5-one], the IC50 fell in the range of 100 to 1000 nM.

Molecule `O=C1c2ccc(Cl)nc2OCCN1C[C@H](O)CN1CCc2ccccc2C1` [Example 153, 8-chloro-4-[(2R)-3-(3,4-dihydro-1H-isoquinolin-2-yl)-2-hydroxy-propyl]-2,3-dihydropyrido[3,2-f][1,4]oxazepin-5-one] had an IC50 of 100 to 1000 nM.

In turn, `O=C1c2ccc(Cl)cc2CCCN1C[C@H](O)CN1CCc2ccccc2C1` [Example 154, 7-chloro-2-[(2R)-3-(3,4-dihydro-1H-isoquinolin-2-yl)-2-hydroxy-propyl]-4,5-dihydro-3H-2-benzazepin-1-one] registered an IC50 of 1 to 100 nM.

Take `CCN1CCN(C[C@H](O)CN2CCc3ccccc3C2)C(=O)c2ccc(Br)cc21` [Example 157, 8-bromo-4-[(2R)-3-(3,4-dihydro-1H-isoquinolin-2-yl)-2-hydroxy-propyl]-1-ethyl-2,3-dihydro-1,4-benzodiazepin-5-one]: the IC50 is 1 to 100 nM.

Molecule `N#CCN1CCC(Oc2ccc3c(c2)OCCN(C[C@H](O)CN2CCc4ccccc4C2)C3=O)CC1` [Example 159] gave an IC50 of 100 to 1000 nM.

The molecule `O=C1c2ccc(OC3CCN(C(=O)C(F)F)CC3)cc2OCCN1C[C@H](O)CN1CCc2ccccc2C1` [Example 160, 8-[[1-(2,2-difluoroacetyl)-4-piperidyl]oxy]-4-[(2R)-3-(3,4-dihydro-1H-isoquinolin-2-yl)-2-hydroxy-propyl]-2,3-dihydro-1,4-benzoxazepin-5-one] showed an IC50 of 1 to 100 nM.

As for `O=C1c2ccc(OC3CN(C(=O)C(F)F)C3)cc2OCCN1C[C@H](O)CN1CCc2ccccc2C1` [Example 161], the IC50 lay within 1 to 100 nM.

`O=C1c2ccc(OC3CCN(CCO)CC3)cc2OCCN1C[C@H](O)CN1CCc2ccccc2C1` [Example 162, 4-[(2R)-3-(3,4-dihydro-1H-isoquinolin-2-yl)-2-hydroxy-propyl]-8-[[1-(2-hydroxyethyl)-4-piperidyl]oxy]-2,3-dihydro-1,4-benzoxazepin-5-one] registered an IC50 of 100 to 1000 nM.

`O=C1c2ccc(OC3CCN(CCF)CC3)cc2OCCN1C[C@H](O)CN1CCc2ccccc2C1` [Example 163, 4-[(2R)-3-(3,4-dihydro-1H-isoquinolin-2-yl)-2-hydroxy-propyl]-8-[[1-(2-fluoroethyl)-4-piperidyl]oxy]-2,3-dihydro-1,4-benzoxazepin-5-one] gave an IC50 of 100 to 1000 nM.

Turning to `O=C1c2ccc(OC3CCN(CCF)CC3)nc2OCCN1C[C@H](O)CN1CCc2ccccc2C1` [Example 164, 4-[(2R)-3-(3,4-dihydro-1H-isoquinolin-2-yl)-2-hydroxy-propyl]-8-[[1-(2-fluoroethyl)-4-piperidyl]oxy]-2,3-di hydropyrido[3,2-f][1,4]oxazepin-5-one], the IC50 fell in the range of 100 to 1000 nM.

For the molecule `CC1(CN2CCC(Oc3ccc4c(c3)OCCN(C[C@H](O)CN3CCc5ccccc5C3)C4=O)CC2)COC1` [Example 165, 4-[(2R)-3-(3,4-dihydro-1H-isoquinolin-2-yl)-2-hydroxypropyl]-8-[[1-[(3-methyloxetan-3-yl)methyl]-4-piperidyl]oxy]-2,3-dihydro-1,4-benzoxazepin-5-one], the IC50 was in the range of 1 to 100 nM.

Turning to `N#CN1CCC(Oc2ccc3c(c2)OCCN(C[C@H](O)CN2CCc4ccccc4C2)C3=O)CC1` [Example 166, 4-[[4-[(2R)-3-(3,4-dihydro-1H-isoquinolin-2-yl)-2-hydroxypropyl]-5-oxo-2,3-dihydro-1,4-benzoazepin-8-yl]oxy]piperidine-1-carbonitrile], the IC50 is 100 to 1000 nM.

Molecule `CC(=O)N1CCN(Cc2ccc3c(c2)OC(C)(C)CN(C[C@H](O)CN2CCc4ccccc4C2)C3=O)CC1` [Example 167, 8-[(4-acetylpiperazin-1-yl)methyl]-4-[(2R)-3-(3,4-dihydro-1H-isoquinolin-2-yl)-2-hydroxy-propyl]-2,2-dimethyl-3H-1,4-benzoxazepin-5-one] had an IC50 of 100 to 1000 nM.

`CC1(C)CN(C[C@H](O)CN2CCc3ccccc3C2)C(=O)c2ccc(OC3CN(C=O)C3)cc2O1` [Example 168, 3-[[4-[(2R)-3-(3,4-dihydro-1H-isoquinolin-2-yl)-2-hydroxy-propyl]-2,2-dimethyl-5-oxo-3H-1,4-benzoxazepin-8-yl]oxy]azetidin-1-carbaldehyde] displayed an IC50 of 1 to 100 nM.

In turn, `CC1(C)CN(C[C@H](O)CN2CCc3ccccc3C2)C(=O)c2ccc(CN3CCN(C=O)CC3)cc2O1` [Example 169, 4-[[4-[(2R)-3-(3,4-dihydro-1H-isoquinolin-2-yl)-2-hydroxy-propyl]-2,2-dimethyl-5-oxo-3H-1,4-benzoxazepin-8-yl]methyl]piperazine-1-carbaldehyde] showed an IC50 of 100 to 1000 nM.

`CC1(C)CN(C[C@H](O)CN2CCc3ccccc3C2)C(=O)c2ccc(CN3CC4(COC4)C3)cc2O1` [Example 170, 4-[(2R)-3-(3,4-dihydro-1H-isoquinolin-2-yl)-2-hydroxy-propyl]-2,2-dimethyl-8-(2-oxa-6-azaspiro[3.3]heptan-6-ylmethyl)-3H-1,4-benzoxazepin-5-one] returned an IC50 of 100 to 1000 nM.

The molecule `CCN1C2CCC1CC(Oc1ccc3c(c1)OCCN(C[C@H](O)CN1CCc4ccccc4C1)C3=O)C2` (stereo partly drawn) [Example 171, 4-[(2R)-3-(3,4-dihydro-1H-isoquinolin-2-yl)-2-hydroxy-propyl]-8-[(8-ethyl-8-azabicyclo[3.2.1]octan-3-yl)oxy]-2,3-dihydro-1,4-benzoxazepin-5-one] gave an IC50 of 1 to 100 nM.

Turning to `CCN1CC2(CC(Oc3ccc4c(c3)OCCN(C[C@H](O)CN3CCc5ccccc5C3)C4=O)C2)C1` [Example 172, 4-[(2R)-3-(3,4-dihydro-1H-isoquinolin-2-yl)-2-hydroxy-propyl]-8-[(2-ethyl-2-azaspiro[3.3]heptan-6-yl)oxy]-2,3-dihydro-1,4-benzoxazepin-5-one], the IC50 is 100 to 1000 nM.

Molecule `CC(=O)N1C2CCC1CC(Oc1ccc3c(c1)OCCN(C[C@H](O)CN1CCc4ccccc4C1)C3=O)C2` (stereo partly drawn) [Example 173, 8-[(8-acetyl-8-azabicyclo[3.2.1]octan-3-yl)oxy]-4-[(2R)-3-(3,4-dihydro-1H-isoquinolin-2-yl)-2-hydroxy-propyl]-2,3-dihydro-1,4-benzoxazepin-5-one] had an IC50 of 1 to 100 nM.

With `CC(=O)N1CC2(CC(Oc3ccc4c(c3)OCCN(C[C@H](O)CN3CCc5ccccc5C3)C4=O)C2)C1` [Example 174, 8-[(2-acetyl-2-azaspiro[3.3]heptan-6-yl)oxy]-4-[(2R)-3-(3,4-dihydro-1H-isoquinolin-2-yl)-2-hydroxy-propyl]-2,3-dihydro-1,4-benzoxazepin-5-one], the IC50 is 1 to 100 nM.

Turning to `O=C(c1ccc2c(c1)OCCN(C[C@H](O)CN1CCc3ccccc3C1)C2=O)N1CCCC1` [Example 175, 4-[(2R)-3-(3,4-dihydro-1H-isoquinolin-2-yl)-2-hydroxy-propyl]-8-(pyrrolidin-1-carbonyl)-2,3-dihydro-1,4-benzoxazepin-5-one], the IC50 is 100 to 1000 nM.

For the molecule `O=C(c1ccc2c(c1)OCCN(C[C@H](O)CN1CCc3ccccc3C1)C2=O)N1CCCCC1` [Example 176, 4-[(2R)-3-(3,4-dihydro-1H-isoquinolin-2-yl)-2-hydroxy-propyl]-8-(piperidine-1-carbonyl)-2,3-dihydro-1,4-benzoxazepin-5-one], the half-maximal inhibitory concentration (IC50) is 100 to 1000 nM.

The molecule `O=C(c1ccc2c(c1)OCCN(C[C@H](O)CN1CCc3ccccc3C1)C2=O)N1CCC(F)(F)C1` [Example 177, 8-(3,3-difluoropyrrolidin-1-carbonyl)-4-[(2R)-3-(3,4-dihydro-1H-isoquinolin-2-yl)-2-hydroxy-propyl]-2,3-dihydro-1,4-benzoxazepin-5-one] yielded an IC50 of 100 to 1000 nM.

Take `CN1CCN(C(=O)c2ccc3c(c2)OCCN(C[C@H](O)CN2CCc4ccccc4C2)C3=O)CC1` [Example 178, 4-[(2R)-3-(3,4-dihydro-1H-isoquinolin-2-yl)-2-hydroxy-propyl]-8-(4-methylpiperazine-1-carbonyl)-2,3-dihydro-1,4-benzoxazepin-5-one]: the IC50 was in the range of 100 to 1000 nM.

For `CC1(C)CN(C[C@H](O)CN2CCc3ccccc3C2)C(=O)c2ccc(CN3CCCC3)cc2O1` [Example 179, 4-[(2R)-3-(3,4-dihydro-1H-isoquinolin-2-yl)-2-hydroxy-propyl]-2,2-dimethyl-8-(pyrrolidin-1-ylmethyl)-3H-1,4-benzoxazepin-5-one], the IC50 was 100 to 1000 nM.

`CC(=O)N1CCC(Oc2ccc3c(c2)OC(C)(C)CN(C[C@H](O)CN2CCc4ccccc4C2)C3=O)CC1` [Example 180, 8-[(1-acetyl-4-piperidyl)oxy]-4-[(2R)-3-(3,4-dihydro-1H-isoquinolin-2-yl)-2-hydroxy-propyl]-2,2-dimethyl-3H-1,4-benzoxazepin-5-one]: the IC50 lay in the range of 1 to 100 nM.

Consider `CC1(C)CN(C[C@H](O)CN2CCc3ccccc3C2)C(=O)c2ccc(OC3CCN(C=O)CC3)cc2O1` [Example 181, 4-[[4-[(2R)-3-(3,4-dihydro-1H-isoquinolin-2-yl)-2-hydroxy-propyl]-2,2-dimethyl-5-oxo-3H-1,4-benzoxazepin-8-yl]oxy]piperidine-1-carbaldehyde], for which the IC50 lay within 100 to 1000 nM.

With `CC1(C)CN(C[C@H](O)CN2CCc3ccccc3C2)C(=O)c2ccc(CN3CCN(C4COC4)CC3)cc2O1` [Example 182, 4-[(2R)-3-(3,4-dihydro-1H-isoquinolin-2-yl)-2-hydroxy-propyl]-2,2-dimethyl-8-[[4-(oxetan-3-yl)piperazin-1-yl]methyl]-3H-1,4-benzoxazepin-5-one], the IC50 lay within 100 to 1000 nM.

The record behind these values is patent US11111237B2, “Bicyclic compound and use thereof” (SK BIOPHARMACEUTICALS CO., LTD., priority 2019, dated 2021).
